# Test: Apparent and compacted bulk density (mass/volume, meshes 30, 80, 100)
# Type: physicochemical
# Excerpt: 2.—Apparent and compacted bulk density; for the test calcium gluconolactonate, from formula III, was classified in 3 different types of mesh 30, 80, and 100 to determine its apparent density. The same procedure was used to determine compacted bulk density. The compound was classified in the same 30, 80, and 100 meshes, determining its density, in both cases, in grams per milliliter, as shown in table II below:
# The average density corresponds to a 30 mesh, for the most common form of the product. A table is attached with different tests performed to determine the average apparent and compacted bulk density, resulting, in the first case, in a[n apparent] density of 0.690 and a compacted bulk density of 0.883, as shown in table III below: […]
# [1] = 30 mesh, average of tests 1 to 31
structure (smiles),measurement,setting,value
CC(O)C(=O)[O-].O=C([O-])[C@H](O)[C@@H](O)[C@H](O)[C@H](O)CO.[Ca+2] [calcium gluconolactate],Apparent Density (30 mesh),"30 mesh, Mass/Volume",0.690 g/mL
same,Compacted Bulk Density (30 mesh),"30 mesh, Mass/Volume",0.883 g/mL
same,"Apparent density, average",[1],0.690
same,"Compacted Bulk density, average",[1],0.883
same,Apparent Density (80 mesh),"80 mesh, Mass/Volume",0.655 g/mL
same,Compacted Bulk Density (80 mesh),"80 mesh, Mass/Volume",0.904 g/mL
same,Apparent Density (100 mesh),"100 mesh, Mass/Volume",0.609 g/mL
same,Compacted Bulk Density (100 mesh),"100 mesh, Mass/Volume",0.874 g/mL

# — patent US7781407B2, “Calcium gluconolactate compositions and methods of making same” (priority 2002, dated 2010)
